# According to ChEMBL document CHEMBL4420076, “Amylin and calcitonin receptor agonist” (2017):
# Numbered stars: 1 amine (or outer) side, 2 acyl side, 3 side chain; on linkers, the order of the positions; unused ones are H or OH. Peptide text beside a SMILES is read from it. * marks the point of attachment. C18 diacid = O=C(O)CCCCCCCCCCCCCCCCC(=O)*; C16 diacid = O=C(O)CCCCCCCCCCCCCCC(=O)*; γGlu = O=C(O)[C@H](CCC(=O)[*:2])N[*:1]
# Tests used:
# [1] = Solubility in 100 mM bistrispropane buffer at pH 7.5 incubated for 18 hrs by UPLC analysis; format: physicochemical
# Rattus norvegicus [2] = assay: Reduction in food intake in Sprague-Dawley rat at 3 nmol/kg measured 0 to 24 hrs post dose relative to control; format: functional; parameters: scale not given: the % may be the effect or the level left
# Calcitonin receptor [3] = biological target: T1, Calcitonin receptor (Homo sapiens, UniProt P30988); assay: Agonist activity at human calcitonin receptor expressed in BHK570 cells assessed as increase in intracellular cAMP concentration incubated for 3 hrs in presence of 10% FBS by CRE luciferase reporter gene assay; format: functional, cell-based
# T1 sequence (P30988 whole entry): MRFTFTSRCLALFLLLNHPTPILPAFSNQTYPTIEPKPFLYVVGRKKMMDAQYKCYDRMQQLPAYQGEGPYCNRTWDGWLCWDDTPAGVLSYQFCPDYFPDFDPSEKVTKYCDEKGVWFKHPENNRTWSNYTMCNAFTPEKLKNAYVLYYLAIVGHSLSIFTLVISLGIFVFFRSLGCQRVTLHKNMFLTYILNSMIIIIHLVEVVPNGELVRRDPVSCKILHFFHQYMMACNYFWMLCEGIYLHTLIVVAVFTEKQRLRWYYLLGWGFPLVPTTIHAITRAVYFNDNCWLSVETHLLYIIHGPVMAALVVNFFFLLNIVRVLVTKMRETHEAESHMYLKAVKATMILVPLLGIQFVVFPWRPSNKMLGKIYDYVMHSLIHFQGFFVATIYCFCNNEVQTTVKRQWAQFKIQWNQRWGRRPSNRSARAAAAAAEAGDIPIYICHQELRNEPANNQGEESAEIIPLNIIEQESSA
# Rattus norvegicus [4] = assay: Reduction in food intake in Sprague-Dawley rat at 3 nmol/kg measured 24 to 48 hrs post dose relative to control; format: functional; parameters: scale not given: the % may be the effect or the level left
# [5] = biological target: T2, Amylin receptor AMY3; CALCR/RAMP3 (Rattus norvegicus, UniProt P32214+Q9JJ73); assay: Displacement of [125I]-labeled rat amylin from rat amylin receptor expressed in BHK tkts13 cell membranes co-expressing RAMP3 incubated for 120 mins by scintillation proximity assay
# T2 sequence (P32214 whole entry): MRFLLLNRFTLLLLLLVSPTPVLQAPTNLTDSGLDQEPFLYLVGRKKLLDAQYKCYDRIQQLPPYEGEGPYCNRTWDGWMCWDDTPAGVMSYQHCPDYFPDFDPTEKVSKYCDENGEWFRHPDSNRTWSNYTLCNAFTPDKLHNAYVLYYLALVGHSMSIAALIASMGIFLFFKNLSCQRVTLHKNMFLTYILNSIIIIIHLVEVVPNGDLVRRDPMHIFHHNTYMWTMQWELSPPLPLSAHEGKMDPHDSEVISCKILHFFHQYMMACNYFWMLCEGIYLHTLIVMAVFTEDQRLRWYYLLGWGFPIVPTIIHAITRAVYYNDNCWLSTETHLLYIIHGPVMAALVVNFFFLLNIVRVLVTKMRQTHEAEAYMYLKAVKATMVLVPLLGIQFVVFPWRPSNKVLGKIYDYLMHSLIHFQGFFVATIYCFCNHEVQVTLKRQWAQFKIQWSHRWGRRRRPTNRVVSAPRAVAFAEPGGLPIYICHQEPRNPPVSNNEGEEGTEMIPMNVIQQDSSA
# T2 sequence (Q9JJ73 whole entry): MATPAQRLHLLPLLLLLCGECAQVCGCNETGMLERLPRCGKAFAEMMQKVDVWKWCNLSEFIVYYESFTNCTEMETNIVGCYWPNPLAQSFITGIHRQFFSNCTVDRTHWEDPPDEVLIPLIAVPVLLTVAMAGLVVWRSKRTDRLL
# [6] = biological target: T3, Amylin receptor AMY3; CALCR/RAMP3 (Homo sapiens, UniProt O60896+P30988); assay: Agonist activity at human amylin receptor expressed in BHK570 cells co-expressing RAMP3 assessed as increase in intracellular cAMP concentration incubated for 3 hrs in presence of 10% FBS by CRE luciferase reporter gene assay; format: functional, cell-based
# T3 sequence (P30988 whole entry): T1 sequence (P30988 whole entry)
# T3 sequence (O60896 whole entry): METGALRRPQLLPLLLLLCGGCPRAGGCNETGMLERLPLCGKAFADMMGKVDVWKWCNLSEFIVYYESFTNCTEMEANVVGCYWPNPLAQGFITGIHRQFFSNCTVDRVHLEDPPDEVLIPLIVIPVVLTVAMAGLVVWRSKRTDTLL
# [7] = biological target: T3, Amylin receptor AMY3; CALCR/RAMP3; assay: Agonist activity at human amylin receptor expressed in BHK570 cells co-expressing RAMP3 assessed as increase in intracellular cAMP concentration incubated for 3 hrs in absence of albumin by CRE luciferase reporter gene assay; format: functional, cell-based
# [8] = Solubility in 100 mM glycylglycine buffer at pH 3.0 incubated for 18 hrs by UPLC analysis; format: physicochemical
# [9] = biological target: T3, Amylin receptor AMY3; CALCR/RAMP3; assay: Displacement of [125I]-labeled rat amylin from human amylin receptor expressed in BHK570 cell membranes co-expressing RAMP3 incubated for 120 mins by scintillation proximity assay
# Calcitonin receptor [10] = biological target: T1, Calcitonin receptor; assay: Agonist activity at human calcitonin receptor expressed in BHK570 cells assessed as increase in intracellular cAMP concentration incubated for 3 hrs in absence of albumin by CRE luciferase reporter gene assay; format: functional, cell-based
# [11] = Solubility in 100 mM bistrispropane buffer at pH 6.5 incubated for 18 hrs by UPLC analysis; format: physicochemical
# [12] = Stability in pH 7.5 buffer assessed as compound recovery at 1 uM by Thioflavin T based fluorescence assay; format: physicochemical; details: read-out: Drug recovery
# [13] = Solubility in 100 mM bistrispropane buffer at pH 8.0 incubated for 18 hrs by UPLC analysis; format: physicochemical
# [14] = Stability in pH 7.5 buffer assessed as lag time for fibril formation at 1 uM by Thioflavin T based fluorescence assay; format: physicochemical; details: pH 7.5, 1 µM
# Calcitonin receptor [15] = biological target: T1, Calcitonin receptor; assay: Displacement of [125I]-labeled human calcitonin from human calcitonin receptor expressed in BHK tkts13 cell membranes incubated for 1 hr by scintillation proximity assay
# [16] = Solubility in 100 mM glycylglycine buffer at pH 4.0 incubated for 18 hrs by UPLC analysis; format: physicochemical
# [17] = Solubility in 100 mM bistrispropane buffer at pH 7.0 incubated for 18 hrs by UPLC analysis; format: physicochemical
# [18] = Solubility in 100 mM bistrispropane buffer at pH 6.0 incubated for 18 hrs by UPLC analysis; format: physicochemical
# [19] = Solubility in 100 mM glycylglycine buffer at pH 5.0 incubated for 18 hrs by UPLC analysis; format: physicochemical
# Calcitonin receptor [20] = biological target: T1, Calcitonin receptor; assay: Displacement of [125I]-labeled human calcitonin from human calcitonin receptor expressed in BHK tkts13 whole cells incubated for 60 mins by scintillation proximity assay; format: cell-based
solubility at 18 h [1] [µM],EC50 (Calcitonin receptor [3]) [nM],IC50 [5] [nM],EC50 [6] [nM],EC50 [7] [nM],solubility at 18 h [8] [µM],IC50 [9] [nM],EC50 (Calcitonin receptor [10]) [nM],solubility at 18 h [11] [µM],remaining at 1 µM [12] [%],solubility at 18 h [13] [µM],Time [14] [h],IC50 (Calcitonin receptor [15]) [nM],solubility at 18 h [16] [µM],solubility at 18 h [17] [µM],solubility at 18 h [18] [µM],solubility at 18 h [19] [µM],IC50 (Calcitonin receptor [20]) [nM],SMILES,Activity (Rattus norvegicus [2]) [%],Activity (Rattus norvegicus [4]) [%]
≥ 200,0.002,0.022,0.004,0.018,≥ 200,0.037,0.015,≥ 200,100,≥ 200,> 45,0.024,≥ 200,≥ 200,≥ 200,≥ 200,–,CC(C)C[C@H](NC(=O)[C@H](C)NC(=O)[C@H](C)NC(=O)[C@@H](NC(=O)[C@H](CO)NC(=O)[C@H](CC(C)C)NC(=O)[C@H](CCC(=O)O)NC(=O)[C@H](CO)NC(=O)[C@H](C)NC(=O)CC[C@H](NC(=O)CCCCCCCCCCCCCCC(=O)O)C(=O)O)[C@@H](C)O)C(=O)NCC(=O)N[C@@H](CCCNC(=N)N)C(=O)N[C@@H](CC(C)C)C(=O)N[C@@H](CO)C(=O)N[C@@H](C)C(=O)N[C@@H](CCC(=O)O)C(=O)N[C@@H](CC(C)C)C(=O)N[C@@H](Cc1cnc[nH]1)C(=O)N[C@@H](CCC(=O)O)C(=O)N[C@@H](CC(C)C)C(=O)N[C@@H](C)C(=O)N[C@H](C(=O)N[C@@H](CC(C)C)C(=O)N1CCC[C@H]1C(=O)N[C@@H](CCCNC(=N)N)C(=O)N[C@H](C(=O)N[C@@H](CCC(=O)O)C(=O)N[C@H](C(=O)NCC(=O)N[C@@H](CO)C(=O)NCC(=O)N[C@@H](CO)C(=O)N1CCC[C@H]1C(N)=O)[C@@H](C)O)[C@@H](C)O)[C@@H](C)O ({C16 diacid-γGlu}-ASELSTAALGRLSAELHELATLPRTETGSGSP-NH2),66,10
≥ 200,–,–,–,0.009,≥ 200,–,0.011,≥ 200,–,≥ 200,–,–,≥ 200,≥ 200,≥ 200,≥ 200,0.605,CC(C)C[C@H](NC(=O)[C@H](C)NC(=O)[C@H](C)NC(=O)[C@@H](NC(=O)[C@H](CO)NC(=O)[C@H](CC(C)C)NC(=O)[C@H](CCC(N)=O)NC(=O)[C@H](CO)NC(=O)[C@H](C)NC(=O)CC[C@H](NC(=O)CCCCCCCCCCCCCCCCC(=O)O)C(=O)O)[C@@H](C)O)C(=O)NCC(=O)N[C@@H](CCCNC(=N)N)C(=O)N[C@@H](CC(C)C)C(=O)N[C@@H](CO)C(=O)N[C@@H](C)C(=O)N[C@@H](CCC(=O)O)C(=O)N[C@@H](CC(C)C)C(=O)N[C@@H](Cc1cnc[nH]1)C(=O)N[C@@H](CCC(=O)O)C(=O)N[C@@H](CC(C)C)C(=O)N[C@@H](C)C(=O)N[C@H](C(=O)N[C@@H](CC(C)C)C(=O)N1CCC[C@H]1C(=O)N[C@@H](CCCNC(=N)N)C(=O)N[C@H](C(=O)N[C@@H](CCC(=O)O)C(=O)N[C@H](C(=O)NCC(=O)N[C@@H](CO)C(=O)NCC(=O)N[C@@H](CO)C(=O)N1CCC[C@H]1C(N)=O)[C@@H](C)O)[C@@H](C)O)[C@@H](C)O ({C18 diacid-γGlu}-ASQLSTAALGRLSAELHELATLPRTETGSGSP-NH2),–,–
